Data set [1] concerns non-alcoholic steatohepatitis mice induced by HFD (high fat diet)+CCl4. In words: Effect on serum ALT and AST levels of non-alcoholic steatohepatitis mice induced by HFD+CCl4. The data set is classed as in vivo, C57BL/6 mice. The arrangement: concentration or dose not given beside the values. To be noted: oral once a day for 28 days, versus solvent control group. From the text:
3. The effect of the compounds of the present invention on the ALT and AST levels of non-alcoholic steatohepatitis mice induced by HFD (high fat diet)+CCl4
The object of this test example is to determine whether the compounds of the present invention can down-regulate the ALT and AST levels in the serum of non-alcoholic steatohepatitis mice or not.
C57BL/6 mice were adaptively fed in a SPF (specific pathogen free) barrier for 3 to 7 days, and then fed with HFD feed with a feeding cycle of 8 weeks. At the fifth week of HFD feeding, the HFD-induced mice were randomly grouped according to body weight, and orally administrated with CCl4 twice a week for 4 weeks. At the day of modeling with CCl4, the test compounds were orally administrated once a day continuously for 28 days. The solvent control group was administrated with the corresponding solvent of the test compounds with an administration volume of 10 mL/kg. The mice were euthanized with CO2 48 hours after the last administration of CCl4, and the non-anticoagulated venous blood was collected from the heart. The whole blood was left to stand at room temperature for at least 30 minutes, and then centrifuged for 5 minutes at 4° C. at 5000 rpm to separate the serum. The serum was dispensed into two portions in 1.5 mL EP tubes, and stored at −80° C. for later use.
The ALT and AST levels in mice serum were determined using the alanine aminotransfease (ALT/GPT) kit and aspartate aminotransferase (AST/GOT) kit. The ALT (or AST) test substrate solution was preheated in a 37° C. incubator; 20 μL of substrate solution were pipetted into a 96-well plate, and 5 μL of serum were pipetted into the 96-well plate as test well. After mixing well, the plate was sealed using a sealing film, and placed into the 37° C. incubator to incubate for 30 min. The ALT (or AST) standard curve was formulated, and 25 μL of which were pipetted into the 96-well plate; 20 μL of […] were pipetted into the 96-well plate as control well; 20 μL of 2,4-dinitrophenylhydrazine solution were added to each well. After mixing well, the plate was sealed using a sealing film, and placed into the 37° C. incubator to incubate for 20 min. 200 μL of 0.4 M NaOH solution were added to each well. The plate was placed on a shaker to shake for 15 min, and then measured on the BioTek Synergy H1 instrument using OD detection program at a wavelength of 510 nm. The absolute OD value was calculated from the OD value of each well. Absolute OD value=OD value of measured well−OD value of control well. The absolute OD value was taken into the standard curve to obtain the ALT (or AST) content of the sample. Samples that exceed the standard curve range should be re-tested after diluting the serum to an appropriate concentration. Data processing: (% ALT reduction rate)=(solvent control group−test compound)/solvent control group×100%; (% AST reduction rate)=(solvent control group−test compound)/solvent control group×100%.

In another data set the target is ASK1 kinase (Homo sapiens (Human), UniProt Q99683). In words: ASK1 enzymatic test (TR-FRET). In kind it is biochemical. The following applies: ASK1 kinase activity. In outline: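 ASK1 at 0.220 nM final was incubated with serially diluted compound, substrate peptide (100–5000 nM final) and ATP (100–1000 μM final) for 0.5–5 h at room temperature. The reaction was stopped with EDTA and labelled antibody, then read by TR-FRET at 615/665 nm after 2–24 h. IC50 was obtained by curve fitting of inhibition rates.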
Chain of ASK1 kinase (Q99683 whole entry): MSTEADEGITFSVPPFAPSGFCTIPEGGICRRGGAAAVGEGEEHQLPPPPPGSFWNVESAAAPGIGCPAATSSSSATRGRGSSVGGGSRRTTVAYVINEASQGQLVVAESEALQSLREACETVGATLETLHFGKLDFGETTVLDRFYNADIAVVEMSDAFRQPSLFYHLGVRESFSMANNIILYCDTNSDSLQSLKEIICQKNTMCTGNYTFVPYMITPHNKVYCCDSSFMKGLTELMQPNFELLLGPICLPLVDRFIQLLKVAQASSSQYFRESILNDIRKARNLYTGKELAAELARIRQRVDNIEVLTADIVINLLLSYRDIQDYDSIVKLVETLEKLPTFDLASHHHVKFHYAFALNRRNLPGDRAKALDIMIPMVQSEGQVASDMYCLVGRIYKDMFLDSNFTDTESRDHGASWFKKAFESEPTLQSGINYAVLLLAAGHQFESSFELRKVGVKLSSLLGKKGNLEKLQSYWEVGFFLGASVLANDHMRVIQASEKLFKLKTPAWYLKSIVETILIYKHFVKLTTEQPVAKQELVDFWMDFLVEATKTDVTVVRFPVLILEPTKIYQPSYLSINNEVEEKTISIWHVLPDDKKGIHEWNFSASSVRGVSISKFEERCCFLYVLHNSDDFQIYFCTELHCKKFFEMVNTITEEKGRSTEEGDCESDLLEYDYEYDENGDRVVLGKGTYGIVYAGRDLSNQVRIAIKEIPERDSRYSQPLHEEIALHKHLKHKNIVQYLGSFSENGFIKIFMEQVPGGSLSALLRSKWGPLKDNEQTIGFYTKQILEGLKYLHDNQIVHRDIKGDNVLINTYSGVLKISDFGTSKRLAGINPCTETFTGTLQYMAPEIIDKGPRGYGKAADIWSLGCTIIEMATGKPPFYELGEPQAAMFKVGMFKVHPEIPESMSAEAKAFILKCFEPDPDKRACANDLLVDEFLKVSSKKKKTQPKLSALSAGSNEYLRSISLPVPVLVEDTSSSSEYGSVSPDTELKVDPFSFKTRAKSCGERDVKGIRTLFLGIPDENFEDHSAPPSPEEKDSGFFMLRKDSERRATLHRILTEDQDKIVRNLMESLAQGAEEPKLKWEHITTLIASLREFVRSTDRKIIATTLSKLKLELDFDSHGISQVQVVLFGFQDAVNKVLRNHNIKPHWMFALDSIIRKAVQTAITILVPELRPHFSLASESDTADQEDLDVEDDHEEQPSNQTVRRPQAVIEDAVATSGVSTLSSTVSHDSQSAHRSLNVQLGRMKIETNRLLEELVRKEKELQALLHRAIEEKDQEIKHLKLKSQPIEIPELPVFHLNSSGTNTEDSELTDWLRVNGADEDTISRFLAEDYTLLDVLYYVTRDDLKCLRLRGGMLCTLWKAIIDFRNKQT
On the technique in general: In TR-FRET formats the signal depends on donor and acceptor labels being close together.

Data set [2] in a line: Pharmacokinetic (PK) assay in mice. To be noted: Balb/c male mice, single intragastric administration, 5 mg/kg, plasma; for AUC(0-t) / AUC(0-inf) / half-life / MRT / Cmax: mouse, po; for AUC(0-t): read-out: Area under curve AUC0-t; for AUC(0-inf): read-out: Area under curve AUC0-∞; for half-life: read-out: Half-life t1/2 (converted); for MRT: read-out: Mean residence time MRT; for Cmax: read-out: Plasma concentration Cmax. The data set is classed as in vivo. In outline:
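Male Balb/c mice given a single intragastric dose of 5 mg/kg (10 ml/kg) in 0.5% CMC-Na. Orbital blood at 0.5–24 h into K2EDTA; plasma acetonitrile-precipitated and measured by LC-MS/MS (C18, formic acid/acetonitrile gradient). PK parameters by WinNonlin.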

As a reminder, the IC50 is the concentration needed to halve the response being measured. The term MRT denotes a mean duration of stay, worked out from the concentration-time curve. Turning to `Cc1cc(F)c(C(=O)Nc2cccc(-c3nnc4n3C(C)(C)CC4)n2)cc1-n1cnc(C2CC2)c1` [Example 10, 5-(4-Cyclopropyl-1H-imidazol-1-yl)-N-(6-(5,5-dimethyl-6,7-dihydro-5H-pyrrolo[2,1-c][1,2,4]triazol-3-yl)pyridin-2-yl)-2-fluoro-4-methylbenzamide], in data set [1], the “ALT(U/L) reduction rate (%)” value is listed as 50% and the “AST(U/L) reduction rate (%)” value was found to be 46%. Also, at ASK1 kinase, the concentration for half-maximal inhibition (IC50) stood at 1 nM. Moreover, in data set [2], the Peak time tmax is 0.5 h, the AUC(0-t) amounted to 32400 ng·h/mL, the AUC(0-inf) was 32400 ng·h/mL and the half-life is 1.6 h. Moreover, in data set [2], the mean residence time (MRT) was found to be 3 h and the Cmax was determined as 8990 ng/mL.
In the case of `CC[C@@H]1CCc2nnc(-c3cccc(NC(=O)c4cc(-n5cnc(C6CC6)c5)c(C)cc4F)n3)n21` [Example 55, (R)-5-(4-Cyclopropyl-1H-imidazol-1-yl)-N-(6-(5-ethyl-6,7-dihydro-5H-pyrrolo[2,1-c][1,2,4]triazol-3-yl)pyridin-2-yl)-2-fluoro-4-methylbenzamide], in data set [1], the “ALT(U/L) reduction rate (%)” value worked out at 56% and the “AST(U/L) reduction rate (%)” value was 55%. Besides, it took 1.9 nM to reach half-maximal inhibition on ASK1 kinase (IC50). In data set [2], the Peak time tmax worked out at 0.5 h, the AUC(0-t) was 31500 ng·h/mL, the AUC(0-inf) was 31500 ng·h/mL and the half-life was 1.4 h. In addition, in data set [2], the mean residence time MRT turned out to be 2.9 h and the Cmax amounted to 9330 ng/mL.

The values are drawn from patent US11136324B2, “Substituted imidazoles as apoptosis signal regulating kinase 1 inhibitors” (Jiangsu Hansoh Pharmaceutical Group Co., Ltd., priority 2017, dated 2021).
